From patent EP1019392B1, “TRICYCLIC AMIDES USEFUL FOR INHIBITION OF G-PROTEIN FUNCTION AND FOR TREATMENT OF PROLIFERATIVE DISEASES” (SCHERING CORPORATION, priority 1995, dated 1997)

How the values were obtained:
[1] = biological target: T1, geranylgeranyl protein transferase (GGPT) I (Rattus norvegicus, UniProt P53610+Q04631); assay: In vitro enzyme assay: inhibition of geranylgeranyl protein transferase I (Ras-CVLL as acceptor); type: biochemical; settings: Table 2; Ras-CVLL as isoprenoid acceptor
T1 construct: geranylgeranyl protein transferase (GGPT) I were partially purified from rat brain; from tissue; host or cells: rat brain
Text: • 1. In vitro enzyme assays: Inhibition of farnesyl protein transferase and geranylgeranyl protein transferase. Both farnesyl protein transferase (FPT) and geranylgeranyl protein transferase (GGPT) I were partially purified from rat brain by ammonium sulfate fractionation followed by Q-Sepharose (Pharmacia, Inc.) anion exchange chromatography essentially as described by Yokoyama et al (Yokoyama, K., et al., (1991), A protein geranylgeranyltransferase from bovine brain: Implications for protein prenylation specificity, Proc. Natl. Acad. Sci USA 88: 5302-5306, the disclosure of which is incorporated herein by reference thereto). Human farnesyl protein transferase was also expressed in E. coli, using cDNA clones encoding both the a and b subunits. The methods used were similar to those published (Omer, C. et al., (1993), Characterization of recombinant human farnesyl protein transferase: Cloning, expression, farnesyl diphosphate binding, and functional homology with yeast prenyl-protein transferases, Biochemistry 32:5167-5176). Human farnesyl protein transferase was partially-purified from the soluble protein fraction of E. coli as described above. The tricyclic farnesyl protein transferase inhibitors disclosed herein inhibited both human and rat enzyme with similar potencies. Two forms of val^12-Ha-Ras protein were prepared as substrates for these enzymes, differing in their carboxy terminal sequence. One form terminated in cysteine-valine-leucine-serine (Ras-CVLS) the other in cystein-valine-leucine-leucine (Ras-CVLL). Ras-CVLS is a substrate for the farnesyl protein transferase while Ras-CVLL is a substrate for geranylgeranyl protein transferase I. The cDNAs encoding these proteins were constructed so that the proteins contain an amino-terminal extension of 6 histidine residues. Both proteins were expressed in Escherichia coli and purified using metal chelate affinity chromatography. The radiolabelled isoprenyl pyrophosphate substrates, [^3H]farnesyl pyrophosphate and [^3H]geranylgeranyl pyrophosphate, were purchased from DuPont/New England Nuclear. Several methods for measuring farnesyl protein transferase activity have been described (Reiss et al 1990, Cell 62: 81; Schaber et al 1990, J. Biol. Chem. 265: 14701; Manne et al 1990, PNAS 87: 7541; and Barbacid & Manne 1993, U.S. Patent No. 5,185,248). The activity was assayed by measuring the transfer of [^3H]farnesyl from [^3H]farnesyl pyrophosphate to Ras-CVLS using conditions similar to those described by Reiss et al. 1990 (Cell 62: 81) The reaction mixture contained 40 mM Hepes, pH 7.5; 20 mM magnesium chloride; 5 mM dithiothreitol; 0.25 µM [^3H]farnesyl pyrophosphate; […] Q-Sepharose-purified farnesyl protein transferase; the indicated concentration of tricyclic compound or dimethylsulfoxide (DMSO) vehicle control (5% DMSO final); and […] Ras-CVLS in a total volume of […]. The reaction was allowed to proceed for 30 minutes at room temperature and then stopped with 0.5 ml of 4% sodium dodecyl sulfate (SDS) followed by 0.5 ml of cold 30% TCA. Samples were allowed to sit on ice for 45 minutes and precipitated Ras protein was then collected on GF/C filter paper mats using a Brandel cell harvester. Filter mats were washed once with 6% TCA, 2% SDS and radioactivity was measured in a Wallac 1204 Betaplate BS liquid scintillation counter. Percent inhibition was calculated relative to the DMSO vehicle control. The geranylgeranyl protein transferase I assay was essentially identical to the farnesyl protein transferase assay described above, with two exceptions: [^3H]geranylgeranylpyrophosphate replaced farnesyl pyrophosphate as the isoprenoid donor and Ras-CVLL was the protein acceptor. This is similar to the assay reported by Casey et al (Casey, P.J., et al., (1991), Enzymatic modification of proteins with a geranylgeranyl isoprenoid, Proc. Natl. Acad. Sci, USA 88: 8631-8635, the disclosure of which is incorporated herein by reference thereto). • 2. […]

[2] = system: Normal human HEPM fibroblasts; assay: Cell Mat Assay, normal cell mat; type: cell-based; settings: Homo sapiens, Fibroblast, normal monolayer
[3] = system: SW620-BAG human colon carcinoma cells expressing an activated K-ras gene; assay: Cell Mat Assay, SW620 tumor cells; type: cell-based
[4] = system: DLD-1-BAG human colon carcinoma cells expressing as activated K-ras gene; assay: Cell Mat Assay, DLD-1 tumor cells; type: cell-based
[5] = Homo sapiens, SW-620, Mat assay

| Structure (SMILES) | IC50 [1] [µM] | IC50 [2] [µM] | IC50 [3, 5] [µM] | IC50 ([4]; Homo sapiens, DLD-1, Mat assay) [µM] | IC50 ([4]; Mat assay) [µM] | IC50 ([3]; Mat assay) [µM] |
| --- | --- | --- | --- | --- | --- | --- |
| O=C(Cc1cc[n+]([O-])cc1)N1CCC(=C2c3ncc(Br)cc3CCc3cc(Cl)cc(Br)c32)CC1 (racemic) [Example 7] | > 300 | > 25 | 6.25 | – | – | – |
| NC(=O)N1CCC(CC(=O)N2CCC(C3c4ccc(Cl)c(Br)c4CCc4cc(Br)cnc43)CC2)CC1 (single isomer, unassigned) [Example 13] | > 63 | – | – | – | – | – |
| O=C(Cc1cc[n+]([O-])cc1)N1CCC(C2c3ccc(Cl)c(Br)c3CCc3cc(Br)cnc32)CC1 (single isomer, unassigned) [Example 14A] | > 62 | > 25 | 12.5 | 6.25 | – | – |
| NC(=O)N1CCC(CC(=O)N2CCC(C3c4ncc(Br)cc4CCc4cc(Cl)cc(Cl)c43)CC2)CC1 (single isomer, unassigned) [Example 18] | > 50 | – | – | – | – | – |
| O=C(Cc1cc[n+]([O-])cc1)N1CCC(=C2c3ccc(Cl)c(Br)c3CCc3cc(Br)cnc32)CC1 [Example 2] | > 300 | > 25 | 6.25 | 6.25 | – | – |
| O=C(Cc1cc[n+]([O-])cc1)N1CCN([C@H]2c3ccc(Cl)c(Br)c3CCc3cc(Br)cnc32)CC1 [Example 5] | > 66 | > 25 | 6.25 | 3.1 | – | – |
| O=C(Cc1cc[n+]([O-])cc1)N1CCC([C@H]2c3ncc(Br)cc3CCc3cc(Cl)cc(Br)c32)CC1 [Example 9] | > 59 | > 25 | 6.25 | < 1.6 | – | – |
| O=C(Cc1cc[n+]([O-])cc1)N1CCN([C@H]2c3ncc(Br)cc3CCc3cc(Cl)cc(Br)c32)CC1 [Example 11A] | > 66 | > 25 | – | – | < 1.6 | > 6.25 |
| O=C(Cc1cc[n+]([O-])cc1)N1CCN([C@@H]2c3ccc(Cl)cc3CCc3cc(Br)cnc32)CC1 [Example 16A] | > 38 | – | – | – | – | – |
| O=C(Cc1cc[n+]([O-])cc1)N1CCN([C@H]2c3ccc(Cl)cc3CCc3cc(Br)cnc32)CC1 [Example 16B] | > 76 | > 25 | 25 | 6.25 | – | – |
